# Data taken from patent US6495538B2, “Zinc ionophores as therapeutic agents” (Zinc Therapeutics, Canada Inc., priority 1999, dated 2002).
# What was measured:
# [1] = tested on: cultured HUVEC, isolated cardiac myocytes, and cultured cerebellar neurons; assay: Zinc ionophore screening with Fura-2 loaded cells; type: cell-based, human, rabbit, mouse; conditions: for zinc ionophore activity: 1 μM zinc-complexed holo-ionophore, slope of Fura-2 fluorescence ratio 340/380 nm
# Protocol: Human umbilical vein endothelial cells (HUVEC) were purchased from Clonetics (San Diego, Calif.) and passages 2-4 were used for these studies. Cells were cultured on flame-sterilized glass coverslips in Endothelial Basal Medium (Clonetics) supplemented with 10 ng/ml human recombinant epidermal growth factor, 1.0 ug/ml hydrocortisone, 50 ug/ml gentamicin, 50 ng/ml amphotetericin B, 12 ug/ml bovine brain extract and 2% v/v fetal bovine serum (all from Clonetics), in a humidified chamber at 37° C. and 5% CO2. To maintain cell populations, proliferating HUVEC were passaged at 80-90% confluency.
# Cardiac myocytes were isolated from the ventricular septum of adult rabbit hearts, following collagenase digestion, in a manner similar to that described previously (Turan, B. et al., (1997) Am. J. Physiol. 272:H2095-H2106). The modification consisted of introducing low concentrations of CaCl2 during the perfusion with collagenase and the dispersion of the myocytes. Hearts were perfused for about 2 min by gravity under a hydrostatic pressure of 1 m, with a nominally Ca^2+-free solution containing (in mM): NaCl, 145; KCl, 5; MgSO4, 1.2; Na2HPO4, 1.8; HEPES, 5; glucose, 10; pH adjusted to 7.4 with NaOH. Forty ml of this perfusate were then supplemented with collagenase (1 mg/ml) and perfusion was continued with recirculation. […] The flow rate was then adjusted to 15 ml/min and 50 μM CaCl2 was added to the collagenase solution. Perfusion with this solution was continued for another 15 to 18 min, followed by a 2 min washout of the enzyme with fresh perfusate containing 100 μM CaCl2 and no collagenase. The hearts were then removed from the apparatus and the ventricular septum isolated and minced. Dissociation of the cells was obtained by gentle agitation of the minced tissue in 50 ml of the same perfusing solution. Following filtration through a 200 μm nylon mesh, the cells were allowed to settle and the supernatant was replaced with a solution containing 2 mM CaCl2. Cells were kept at 37° C. in this pre-oxygenated solution and were studied within 8 hours after isolation, cellular viability was ensured by regularly replacing the incubation solution.
# Primary cultures of mouse cerebellar granule neurons were obtained from dissociated cerebella of postnatal day 8 or 9 mice according to the following protocol (Cregan et al., (1999) J. Neurosci. 19:7860-7869, incorporated herein by reference). Brains were removed and placed into separate dishes containing solution A (124 mM NaCl, 5.37 mM KCl, 1 mM NaH2 PO4 , 1.2 mM MgSO4 , 14.5 mM D-(1)-glucose, 25 mM HEPES, 3 mg/ml BSA, pH 7.4) in which the cerebella were dissected, meninges removed, and tissue sliced into small pieces. The tissue was briefly centrifuged and transferred to solution A containing 0.25 mg/ml trypsin, then incubated at 37° C. for 18 min. After the addition of 0.082 mg/ml trypsin inhibitor (Boehringer Mannheim, Indianapolis, IN) and 0.25 mg/ml DNase I (Boehringer Mannheim), the tissue was incubated at 25° C. for 2 min. After a brief centrifugation, the resulting pellet was gently titrated in solution A yielding suspension that was further incubated for 10 min at 25° C. in solution A containing 2.7 mM MgSO4 and 0.03 mM CaCl2. After a final centrifugation the pellet was resuspended in EMEM media (Sigma, St. Louis, Mo.) containing 10% dialyzed FBS (Sigma), 25 mM KCl, 2 mM glutamine (Life Technologies BRL, Gaithersburg, Md.), 25 mM glucose, and 0.1 mg/ml gentamycin (Sigma) and filtered through a cell strainer (size 70 μm; Falcon). Cells were plated on glass coverslips coated with poly-D-lysine (Sigma) in Nunc four-well dishes at a density of 1.5×10^6 cells per milliliter of medium. Cytosine-β-arabinoside (10 μM; Sigma) was added 24 hr after plating.
# In order to ascertain that the transported ion was indeed Zn^2+, and not some other divalent cation contaminant, the test compounds were first complexed with zinc.
# PTZ-induced seizures = assay: Subcutaneous PTZ (pentylenetetrazole) test; type: in vivo, rat; conditions: 62.5 nmol/kg i.p.
# Description: The ability of a test compound to inhibit PTZ-induced clonic and tonic convulsions is currently regarded as predictive of efficacy against “absence” seizures and/or myoclonic seizures (Suzdak, Jansen, 1995, Epilepsia, 36(6):612-626). The pharmacological profile of the PTZ test varies depending on the endpoint selected: PTZ can produce myoclonic jerks, repeated clonic seizures of forelimbs and hindlimbs with and without loss of righting reflex, and loss of righting reflex followed by tonic extension of the forelimbs and hind limbs. To have the full picture of the PTZ-induced seizures and of the effects of zinc ionophores, and to make the model more discriminative (White at al., supra) the behavioral reaction of each rat was monitored for a period of 2 hours which is much longer than the usual time period in conventional screening experiments.
# PTZ (120 mg/kg) was administered subcutaneously to male Wistar rats (300-450 g). Zinc ionophores were injected i.p. in one bolus, 30 min before PTZ at a dose of 62.5 nmol/kg and a total volume of 0.25-0.4 ml.
# PC12 cells = assay: Differentiated PC12 cells, H2O2-induced apoptosis; type: cell-based, rat; conditions: concentrations equivalent to those of zinc-pyrithione; not shown
# Description: Control cells were pretreated with the carrier DMSO alone.
# [2] = tested on: Human umbilical vein endothelial cells (HUVEC)
# Protocol: Human umbilical vein endothelial cells (HUVEC) were purchased from Clonetics (San Diego, Calif.) and used from passages 2-4. Cells were cultured on gelatin-coated culture dishes in Endothelial Basal Medium (Clonetics) supplemented with 10 ng/ml human recombinant epidermal growth factor, 1.0 ug/ml hydrocortisone, 50 ug/ml gentamicin, 50 ng/ml amphotetericin B, 12 ug/ml bovine brain extract and 2% v/v fetal bovine serum, in a humidified chamber at 37° C. and 5% CO2. To maintain cell populations, proliferating HUVEC were passaged at 80-90% confluency.
# HUVEC were grown to confluency, and then given an additional 24 hours to achieve quiescence prior to experimental treatment. The following treatments were performed:
# The cells were washed twice with 37° C. D-PBS and then irradiated in fresh media. Irradiated cells received a dose of 1000 Rads of gamma-irradiation from a ^137Cesium source (Atomic Energy of Canada). The cells were then incubated for 2 hours (cytosolic and nuclear protein extraction) or 8 hours (Hoechst staining and DNA electrophoresis).
# Cells were grown on round, gelatin coated 12 mm glass coverslips, and following treatment, were fixed with 0.5 ml of 1% glutaraldehyde in PBS for 10 minutes at room temperature (RT). […] The nuclear morphology of the cells was then visualized under a Zeiss Axiophot fluorescence microscope.
compound,measurement,setting,value
Oc1cccc2cccnc12 [8-Hydroxyquinoline],zinc ionophore activity,[1],"8-Hydroxyquinoline, ✓"
CCN(CC)C(=S)SSC(=S)N(CC)CC [Disulfiram],zinc ionophore activity,[1],Disulfiram ✓✓
COc1ccc2c(c1)c(CC(=O)O)c(C)n2C(=O)c1ccc(Cl)cc1 [Indomethacin],zinc ionophore activity,[1],Indomethacin ✓
S=C(S)N1CCCC1 [Pyrrolidinedithiocarbamate],zinc ionophore activity,[1],Pyrrolidinedithiocarbamate ✓✓
"CC1=C(/C=C/C(C)=C/C=C/C(C)=C/CO)C(C)(C)CCC1 [Vitamin A (all-trans-retinol), all-trans-retinol]",zinc ionophore activity,[1],Vitamin A (all-trans-retinol) ✓
"Cc1c(C)c2c(c(C)c1O)CC[C@@](C)(CCC[C@H](C)CCC[C@H](C)CCCC(C)C)O2 [Vitamin E (alpha-tocopherol), alpha-tocopherol]",zinc ionophore activity,[1],Vitamin E (alpha-tocopherol) ✓
"Oc1c(I)cc(I)c2cccnc12.[Zn] [ZDIHQ, zinc 5,7-diiodo-8-hydroxyquinoline]",zinc ionophore activity,[1],"5,7-Diiodo-8-hydroxyaquinoline ✓✓"
same,ionophore activity compared between cell types,"[1]; HUVEC, cardiac myocytes, cerebellar neurons",comparable in all three cell types tested
same,latency of clonus with loss of righting reflex,PTZ-induced seizures; M ± S.E.M.,21.2 ± 2.7 min
same,latency of clonus without loss of righting reflex,PTZ-induced seizures; M ± S.E.M.,15.6 ± 1.7 min
same,latency of tonic seizure,PTZ-induced seizures; M ± S.E.M.,28.4 ± 4.1 min
same,increase of survival time (mean time to death) of non-survivors,PTZ-induced seizures; rats which died within 2 h,1.6 fold
[Zn+2] [Zn^2+],apoptosis of H2O2-treated cells,PC12 cells,did not block apoptosis
[Na+].[O-][n+]1ccccc1[S-] [sodium-pyrithione],apoptosis in irradiated HUVEC,"[2]; 1000 Rads gamma-irradiation, 8 hours",not effective
same,apoptosis caused in control cultures,[2]; non-irradiated HUVEC,No apoptosis
